The source made the active and inactive calls.
How the values were obtained:
[1] = target: NADPH oxidase 1 (Homo sapiens, UniProt Q9Y5S8); assay type: functional, cell-based;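 also: Cell-based assay with luminescence read-out, IC50 derived from inhibitor dose-response curves; intracellular ROS from endogenous NOX1 in intact HT29 colon cancer cells; potency of inhibitors that lower the ROS luminescence signal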
[2] = Luminescence Cell-Based Dose-Confimation HTS to Identify Inhibitors of 5'UTR Stem-Loop Driven Alpha-Synuclein mRNA Translation in H4 Neuroglioblastoma Cells. [Related pubchem assays: 1827 (Project Summary), 1813 (Primary HTS)]; assay type: functional
[3] = target: T1, Heat shock 70 kDa protein 1A (Homo sapiens, UniProt P0DMV8); test: Hsp70 inhibitors, biochemical, TR-FRET (AID 786)
T1 sequence (P0DMV8 whole entry): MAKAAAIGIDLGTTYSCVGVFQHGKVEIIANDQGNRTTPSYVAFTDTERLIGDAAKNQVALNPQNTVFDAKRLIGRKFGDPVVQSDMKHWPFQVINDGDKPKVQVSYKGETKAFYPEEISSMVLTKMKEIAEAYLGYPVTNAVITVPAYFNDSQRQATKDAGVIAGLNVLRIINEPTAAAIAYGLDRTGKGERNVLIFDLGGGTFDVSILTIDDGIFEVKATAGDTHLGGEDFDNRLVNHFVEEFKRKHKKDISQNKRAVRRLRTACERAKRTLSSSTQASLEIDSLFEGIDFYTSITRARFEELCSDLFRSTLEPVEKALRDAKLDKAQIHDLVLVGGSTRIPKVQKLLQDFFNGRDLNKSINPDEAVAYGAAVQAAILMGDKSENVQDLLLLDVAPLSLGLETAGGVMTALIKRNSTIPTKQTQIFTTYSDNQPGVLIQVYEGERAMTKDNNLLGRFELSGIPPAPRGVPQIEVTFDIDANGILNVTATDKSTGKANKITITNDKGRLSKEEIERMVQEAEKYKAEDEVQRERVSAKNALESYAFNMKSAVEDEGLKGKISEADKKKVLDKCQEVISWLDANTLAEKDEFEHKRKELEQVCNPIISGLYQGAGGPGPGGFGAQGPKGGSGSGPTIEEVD

[4] = target: T1, Heat shock 70 kDa protein 1A; test: Hsp70 inhibitors, probe displacement, primary screen, biochemical, fluorescence polarization (AID 583)
[5] = target: Peroxisome proliferator-activated receptor gamma/Nuclear receptor coactivator 2 (Homo sapiens, UniProt P37231); assay type: functional;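 also: agonist potency for raising coactivator recruitment to the receptor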
[6] = target: Peroxisome proliferator-activated receptor gamma/Nuclear receptor coactivator 1 (Homo sapiens, UniProt P37231); assay type: functional;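 also: agonist potency as compounds enhance coactivator SRC-1 recruitment to PPARgamma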
[7] = target: Peroxisome proliferator-activated receptor gamma/Nuclear receptor coactivator 3 (Homo sapiens, UniProt P37231); assay type: functional;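 also: agonist potency for raising coactivator recruitment to the receptor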
[8] = target: Leucine aminopeptidase (Plasmodium falciparum 3D7, UniProt Q8IL11); test: P. falciparum M17LAP inhibitors, primary screen, biochemical, fluorogenic H-Leu-NHMec substrate, 1536-well (AID 1619); assay type: functional
Chain of Leucine aminopeptidase (Q8IL11 whole entry): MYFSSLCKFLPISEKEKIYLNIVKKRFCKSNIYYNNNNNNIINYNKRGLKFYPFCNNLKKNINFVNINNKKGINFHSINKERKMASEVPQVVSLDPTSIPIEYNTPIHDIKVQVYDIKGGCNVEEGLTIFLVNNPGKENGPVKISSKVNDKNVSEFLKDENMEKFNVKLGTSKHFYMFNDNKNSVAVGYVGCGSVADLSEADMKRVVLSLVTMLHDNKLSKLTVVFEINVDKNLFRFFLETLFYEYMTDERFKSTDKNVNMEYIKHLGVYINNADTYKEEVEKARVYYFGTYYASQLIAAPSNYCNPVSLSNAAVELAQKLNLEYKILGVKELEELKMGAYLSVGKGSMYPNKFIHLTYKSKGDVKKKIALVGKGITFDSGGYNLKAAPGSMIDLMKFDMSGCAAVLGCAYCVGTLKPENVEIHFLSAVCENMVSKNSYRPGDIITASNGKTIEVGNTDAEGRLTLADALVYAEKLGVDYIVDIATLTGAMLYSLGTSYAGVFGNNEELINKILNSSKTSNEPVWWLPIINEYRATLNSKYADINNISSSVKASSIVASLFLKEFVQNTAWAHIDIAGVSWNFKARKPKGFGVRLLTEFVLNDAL

[9] = test system: Streptococcus sp. 'group A'; test: growth inhibition of control SK(-) GAS strain, dose response, counter-screen for streptokinase expression inhibitor project, luminescence, kanamycin, BacTiterGlo, confirmation (AID 1900); assay type: functional, organism-based
[10] = cells; assay type: functional, cell-based
[11] = target: T2, Serine/threonine-protein phosphatase PP1-alpha catalytic subunit (Homo sapiens, UniProt P62136); test: PP1 phosphatase inhibitors, dose response, biochemical, fluorescence (AID 2403);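 also: phosphatase turnover of OMFP into fluorescent 3-O-methylfluorescein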
T2 sequence (P62136 whole entry): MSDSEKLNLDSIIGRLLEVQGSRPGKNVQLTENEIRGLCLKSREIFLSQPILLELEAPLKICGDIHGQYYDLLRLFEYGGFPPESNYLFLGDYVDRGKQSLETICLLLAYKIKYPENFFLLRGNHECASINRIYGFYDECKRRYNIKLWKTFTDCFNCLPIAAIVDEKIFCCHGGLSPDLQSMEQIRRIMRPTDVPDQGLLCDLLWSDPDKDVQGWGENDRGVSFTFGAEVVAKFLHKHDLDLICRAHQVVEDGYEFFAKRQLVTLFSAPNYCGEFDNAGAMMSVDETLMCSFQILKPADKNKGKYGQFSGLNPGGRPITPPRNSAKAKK

[12] = target: T3, Streptokinase A (Streptococcus pyogenes serotype M1, UniProt P10520); test: S. pyogenes streptokinase expression inhibitors, potency, dose response, plasminogen activation absorbance, OD405 (AID 1914); assay type: functional, Streptococcus pyogenes M1 GAS;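 also: secreted streptokinase activity via plasminogen activation per viability signal from cell pellet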
T3 sequence (P10520 whole entry): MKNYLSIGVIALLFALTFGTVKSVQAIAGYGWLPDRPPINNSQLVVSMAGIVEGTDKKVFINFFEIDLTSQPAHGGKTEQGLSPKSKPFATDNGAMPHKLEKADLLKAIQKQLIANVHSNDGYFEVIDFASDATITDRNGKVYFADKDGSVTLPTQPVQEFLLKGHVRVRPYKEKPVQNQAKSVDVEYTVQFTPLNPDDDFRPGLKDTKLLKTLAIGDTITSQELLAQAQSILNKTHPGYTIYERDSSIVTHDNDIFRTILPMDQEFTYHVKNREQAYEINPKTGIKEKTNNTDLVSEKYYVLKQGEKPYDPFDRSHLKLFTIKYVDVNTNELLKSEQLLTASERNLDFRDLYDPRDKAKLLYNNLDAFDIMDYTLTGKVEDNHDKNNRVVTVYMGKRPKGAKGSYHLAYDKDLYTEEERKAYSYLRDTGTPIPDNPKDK

[13] = cytotoxicity in HPDE-C7 cells, cell-based, fluorescence, HTS (AID 430); assay type: functional; details: Homo sapiens
[14] = inhibitors of intracellular T. cruzi replication, confirmation, NIH3T3 host cells, beta-gal luminescence (AID 2044); assay type: functional, cell-based;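 also: intracellular parasites grown in NIH/3T3 mouse fibroblasts as host cells; luminescent beta-galactosidase reporter signal from transgenic T. cruzi replicating inside host cells; inhibitors lower the luminescence signal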
[15] = cytotoxicity in KRAS-transformed pancreatic duct cells, primary screen, cell-based, fluorescence, HTS (AID 431); assay type: functional; details: Homo sapiens;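 also: cell line used: HPDE-C7K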
[16] = cells; assay type: functional, cell-based; remark: listed apart in the source
[17] = target: T4, Serine/threonine-protein phosphatase (Homo sapiens, UniProt Q9BPW0); test: Counterscreen for inhibitors of PP1: fluorescence-based biochemical high throughput dose response assay to identify inhibitors of Protein Phosphatase 5 (PP5). [Related pubchem assays: 2034 (Summary (PP5 inhibitors)), 1987 (PP5 inhibitors in singlate), 2235 (PP1 inhibitors in singlate)]
T4 sequence (Q9BPW0 whole entry): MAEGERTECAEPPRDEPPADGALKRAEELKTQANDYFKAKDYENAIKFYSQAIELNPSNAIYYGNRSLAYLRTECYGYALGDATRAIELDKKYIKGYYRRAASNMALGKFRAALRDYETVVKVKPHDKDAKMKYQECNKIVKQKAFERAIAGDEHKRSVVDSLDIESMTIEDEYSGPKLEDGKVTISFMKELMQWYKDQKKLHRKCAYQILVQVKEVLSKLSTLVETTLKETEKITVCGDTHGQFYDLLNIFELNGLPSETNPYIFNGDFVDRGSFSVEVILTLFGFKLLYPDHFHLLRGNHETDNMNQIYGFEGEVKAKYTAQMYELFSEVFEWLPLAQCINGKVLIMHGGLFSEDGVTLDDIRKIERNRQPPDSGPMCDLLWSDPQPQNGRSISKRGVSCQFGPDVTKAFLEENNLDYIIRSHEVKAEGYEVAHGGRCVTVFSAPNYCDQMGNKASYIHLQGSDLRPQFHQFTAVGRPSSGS

[18] = cytotoxicity toward NIH3T3 fibroblasts, dose response, counter-screen, cell-based, ATP luminescence, mouse fibroblasts (AID 2010); assay type: functional;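 also: cells exposed to compound for about 90 hours before reading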
[19] = test system: Streptococcus; test: Group A Streptococcus viability loss, dose response, counter-screen for streptokinase expression inhibitor project, luminescence, BacTiterGlo (AID 1915); assay type: functional, organism-based;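 also: potency for reduction of bacterial viability or growth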
[20] = target: Nonstructural protein 1 (Influenza A virus, UniProt Q194T2); assay type: functional, Influenza A virus (A/California/07/2009(H1N1))
Chain of Nonstructural protein 1 (Q194T2 whole entry): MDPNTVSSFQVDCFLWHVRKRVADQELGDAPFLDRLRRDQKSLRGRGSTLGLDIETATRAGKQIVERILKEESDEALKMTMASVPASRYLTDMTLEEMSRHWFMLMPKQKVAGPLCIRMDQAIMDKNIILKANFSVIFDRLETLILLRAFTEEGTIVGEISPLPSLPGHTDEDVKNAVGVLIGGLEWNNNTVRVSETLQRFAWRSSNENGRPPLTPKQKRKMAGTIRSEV

[21] = test system: INS1; test: beta cell apoptosis inhibitors, cytokine rescue, dose response, luminescence, retest (AID 449756); assay type: functional, cell-based; details: Rattus norvegicus;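 also: cell death triggered by IL-1 beta plus TNF-alpha plus IFN-gamma mixture; protective hits raise ATP signal compared with cytokine alone wells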
[22] = Shn3 3'UTR reporter inhibitors, dose response, cell-based, Clone20 osteoblasts, firefly luciferase, cherry-picked (AID 624132); assay type: functional;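 also: firefly luciferase luminescence from reporter carrying the Shn3 3'UTR in osteoblasts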
[23] = HepG2 cell cytotoxicity, dose response, cytotoxicity control for Shn3 inhibitor project, CellTiter-Glo, cherry-picked (AID 624134); assay type: functional, cell-based
[24] = control 3'UTR Renilla luciferase suppression, dose response, counter-screen for Shn3 inhibitor project, cell-based, Clone20-Shn3RL, cherry-picked (AID 624133); assay type: functional
[25] = Artemis endonuclease inhibitor potency, dose response, biochemical, fluorescence intensity (AID 720701); assay type: functional;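 also: Artemis endonuclease enzyme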
[26] = HepG2 cell cytotoxicity, dose response, cytotoxicity control, ATP luminescence, cherry-pick, activator set 2 (AID 1053143); assay type: functional, cell-based
[27] = test system: HeLa; test: Cytotoxicity counterscreen assay for transcriptional activators of heat shock protein 70 (Hsp70). [Related pubchem assays: 1203, 1252 ]; assay type: functional; details: Homo sapiens;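 also: cells exposed to compound for 16 hours before readout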
[28] = target: Beta-galactosidase (Escherichia coli, UniProt Q8VNN2); test: PubChem AID 485352; assay type: functional
Chain of Beta-galactosidase (Q8VNN2 whole entry): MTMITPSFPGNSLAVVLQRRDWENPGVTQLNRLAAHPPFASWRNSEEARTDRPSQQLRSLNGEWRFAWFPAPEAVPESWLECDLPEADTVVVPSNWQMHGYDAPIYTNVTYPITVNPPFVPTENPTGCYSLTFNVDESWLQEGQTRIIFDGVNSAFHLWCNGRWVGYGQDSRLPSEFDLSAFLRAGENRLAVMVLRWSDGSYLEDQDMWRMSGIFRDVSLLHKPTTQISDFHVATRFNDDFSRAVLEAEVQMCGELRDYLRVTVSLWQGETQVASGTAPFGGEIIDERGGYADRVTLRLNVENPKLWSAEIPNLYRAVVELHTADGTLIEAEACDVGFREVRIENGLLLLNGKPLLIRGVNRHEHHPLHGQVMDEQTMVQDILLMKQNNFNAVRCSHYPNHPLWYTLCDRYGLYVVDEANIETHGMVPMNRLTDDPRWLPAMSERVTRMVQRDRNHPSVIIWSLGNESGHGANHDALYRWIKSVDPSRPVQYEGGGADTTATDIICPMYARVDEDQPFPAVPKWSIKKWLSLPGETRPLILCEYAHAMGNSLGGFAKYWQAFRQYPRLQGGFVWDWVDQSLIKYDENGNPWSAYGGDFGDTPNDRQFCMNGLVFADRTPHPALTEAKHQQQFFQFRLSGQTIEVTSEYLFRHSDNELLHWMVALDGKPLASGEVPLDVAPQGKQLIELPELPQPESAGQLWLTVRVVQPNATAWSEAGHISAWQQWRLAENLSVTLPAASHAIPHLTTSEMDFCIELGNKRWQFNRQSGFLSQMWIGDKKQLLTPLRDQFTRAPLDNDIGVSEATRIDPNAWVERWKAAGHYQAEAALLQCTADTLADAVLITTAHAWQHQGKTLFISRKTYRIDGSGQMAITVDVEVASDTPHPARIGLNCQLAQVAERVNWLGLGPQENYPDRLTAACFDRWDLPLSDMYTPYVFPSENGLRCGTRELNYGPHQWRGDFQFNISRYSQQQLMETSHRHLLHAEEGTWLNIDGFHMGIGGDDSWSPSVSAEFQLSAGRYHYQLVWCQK

[29] = target: G-protein coupled receptor 55 (Homo sapiens, UniProt Q9Y2T6); test: GPR55 antagonists blocking LPI-driven arrestin recruitment, primary screen, imaging, U2OS, beta-arrestin-GFP, LPI agonist (AID 2013); assay type: functional;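 also: antagonist potency measured as reduced agonist-driven arrestin aggregation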
[30] = Luminescence-based dose response cell-based high throughput screening assay for cytotoxic compounds using the IEC-6 intestinal epithelial cell line. [Related pubchem assays: 1858 (Summary AID.), 1825 (Counterscreen.), 1907 (Confirmation screen.)]; assay type: functional
[31] = target: T5, Type-1 angiotensin II receptor (Homo sapiens, UniProt P30556); test: AT1 receptor antagonists, dose response, selectivity assay for APJ receptor antagonist project, cell-based, uHTS hits (AID 463214); assay type: functional;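 also: antagonist potency against angiotensin II stimulated AT1 response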
T5 sequence (P30556 whole entry): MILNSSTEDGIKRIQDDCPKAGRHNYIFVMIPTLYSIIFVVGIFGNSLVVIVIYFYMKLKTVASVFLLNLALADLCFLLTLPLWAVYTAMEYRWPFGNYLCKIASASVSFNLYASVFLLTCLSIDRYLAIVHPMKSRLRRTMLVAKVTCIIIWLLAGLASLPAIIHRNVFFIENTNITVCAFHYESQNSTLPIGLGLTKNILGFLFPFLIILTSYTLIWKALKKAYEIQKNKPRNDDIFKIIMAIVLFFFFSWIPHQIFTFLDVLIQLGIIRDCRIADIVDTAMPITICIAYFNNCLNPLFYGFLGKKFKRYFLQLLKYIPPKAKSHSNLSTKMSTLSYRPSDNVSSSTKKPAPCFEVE

[32] = cytotoxicity in HEK-293T cells, dose response, cytotoxicity control for TCR NF-kB inhibitor project, luminescence, T-cell screen hits (AID 489026); assay type: functional, cell-based;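 also: cells exposed to compound about 14 hours before the viability readout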
[33] = target: T2, Serine/threonine-protein phosphatase PP1-alpha catalytic subunit; test: PP1 phosphatase inhibitors, dose response, biochemical, fluorescence (AID 2394)
[34] = microbe, parasite or virus in culture; assay type: functional; details: Mycobacterium tuberculosis
[35] = target: T4, Serine/threonine-protein phosphatase; test: PP5 phosphatase inhibitors, dose response, biochemical, fluorescence (AID 2395)
[36] = target: T6, Heat shock factor protein 1 (Mus musculus, UniProt P38532); test: HSF1 potentiators in luciferase reporter cells, confirmation, cell-based, NIH3T3, luminescence, dose retest (AID 435004); assay type: functional;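 also: stress induced by proteasome inhibitor MG132 added 30 min after compound; luciferase reporter driven by HSF1 response element in NIH3T3 cells; actives raise luminescence as potentiators of the MG132 stress response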
T6 sequence (P38532 whole entry): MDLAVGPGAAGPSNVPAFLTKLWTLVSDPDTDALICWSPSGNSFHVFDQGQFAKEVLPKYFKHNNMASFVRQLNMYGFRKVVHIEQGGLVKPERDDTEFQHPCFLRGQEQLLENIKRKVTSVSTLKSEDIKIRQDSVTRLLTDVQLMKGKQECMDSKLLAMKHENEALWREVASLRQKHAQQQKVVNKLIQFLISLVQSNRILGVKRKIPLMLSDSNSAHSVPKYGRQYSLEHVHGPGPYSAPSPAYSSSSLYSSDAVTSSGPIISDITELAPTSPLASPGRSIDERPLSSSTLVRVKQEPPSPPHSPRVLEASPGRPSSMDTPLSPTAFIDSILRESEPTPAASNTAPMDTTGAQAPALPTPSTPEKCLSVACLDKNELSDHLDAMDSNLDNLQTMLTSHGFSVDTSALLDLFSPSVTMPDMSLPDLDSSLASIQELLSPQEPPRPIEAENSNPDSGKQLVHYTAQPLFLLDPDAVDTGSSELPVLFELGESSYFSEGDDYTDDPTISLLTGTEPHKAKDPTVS

[37] = ARNT/TACC3 interaction disruptors, potency, confirmation, biochemical, AlphaScreen, cherry-picked samples (AID 651703); assay type: functional, Homo sapiens;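 also: His-tagged ARNT PAS-B domain paired with GST-TACC3 E629A dimer coactivator fragment; potency of inhibitors that break up the complex and lower AlphaScreen signal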
[38] = growth suppression of PTEN-null colon cells, dose response, cell-based, HCT116 PTEN knockout (AID 1047); assay type: functional;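 also: HCT116 colon tumor cells with PTEN knocked out; cells exposed to compound for 60 hours before readout; potency for loss of cell viability measured by luminescence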
[39] = target: Protein-tyrosine kinase 2-beta (Homo sapiens, UniProt Q14289);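 also: potency of inhibitors of PYK2 kinase phosphorylation of poly-GT substrate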
Chain of Protein-tyrosine kinase 2-beta (Q14289 whole entry): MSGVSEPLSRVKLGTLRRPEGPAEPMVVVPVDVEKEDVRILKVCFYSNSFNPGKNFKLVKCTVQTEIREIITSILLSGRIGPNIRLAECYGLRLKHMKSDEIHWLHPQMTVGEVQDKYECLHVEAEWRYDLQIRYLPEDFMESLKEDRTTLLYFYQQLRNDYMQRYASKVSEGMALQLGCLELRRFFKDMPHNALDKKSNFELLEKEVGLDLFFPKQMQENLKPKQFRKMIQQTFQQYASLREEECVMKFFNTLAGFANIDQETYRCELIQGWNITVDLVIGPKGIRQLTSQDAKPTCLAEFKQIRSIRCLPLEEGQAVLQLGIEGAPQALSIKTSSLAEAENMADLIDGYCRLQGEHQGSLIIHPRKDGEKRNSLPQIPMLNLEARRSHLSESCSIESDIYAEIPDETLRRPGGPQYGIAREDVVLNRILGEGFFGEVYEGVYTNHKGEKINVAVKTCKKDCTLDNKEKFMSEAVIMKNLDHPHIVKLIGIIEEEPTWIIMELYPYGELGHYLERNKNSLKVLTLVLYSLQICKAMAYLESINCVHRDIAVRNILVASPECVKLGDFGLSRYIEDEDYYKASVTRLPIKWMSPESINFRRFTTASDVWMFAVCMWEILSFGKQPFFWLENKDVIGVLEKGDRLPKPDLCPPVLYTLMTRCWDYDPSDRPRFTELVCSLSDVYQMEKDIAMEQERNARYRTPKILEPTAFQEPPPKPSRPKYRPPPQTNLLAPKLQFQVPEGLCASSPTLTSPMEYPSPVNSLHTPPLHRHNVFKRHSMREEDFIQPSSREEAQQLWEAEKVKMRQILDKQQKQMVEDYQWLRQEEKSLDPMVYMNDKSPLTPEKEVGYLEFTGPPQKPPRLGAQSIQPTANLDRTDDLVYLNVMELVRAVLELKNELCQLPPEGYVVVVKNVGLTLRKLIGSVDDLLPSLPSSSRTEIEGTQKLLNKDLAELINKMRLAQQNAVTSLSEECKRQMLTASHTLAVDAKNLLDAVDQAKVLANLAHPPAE

[40] = target: ADP-ribosylation factor GTPase-activating protein 1 (Rattus norvegicus, UniProt Q62848); test: Fluorescence polarization-based biochemical high throughput dose response screening assay to identify inhibitors of ADP-ribosylation factor GTPase activating protein 1 (ARFGAP1).; assay type: functional
Chain of ADP-ribosylation factor GTPase-activating protein 1 (Q62848 whole entry, the tested form may be a part): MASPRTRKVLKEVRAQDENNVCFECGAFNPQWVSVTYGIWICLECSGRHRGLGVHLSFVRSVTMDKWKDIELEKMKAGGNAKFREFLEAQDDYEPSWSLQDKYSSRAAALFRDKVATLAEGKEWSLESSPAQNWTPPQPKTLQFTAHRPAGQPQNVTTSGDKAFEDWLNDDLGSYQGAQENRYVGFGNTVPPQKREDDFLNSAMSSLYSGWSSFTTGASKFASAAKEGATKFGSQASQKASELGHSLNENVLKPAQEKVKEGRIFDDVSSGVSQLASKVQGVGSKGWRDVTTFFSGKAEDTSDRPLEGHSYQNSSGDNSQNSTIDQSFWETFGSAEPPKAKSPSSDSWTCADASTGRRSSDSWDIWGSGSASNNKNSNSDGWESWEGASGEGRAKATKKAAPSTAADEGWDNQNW

[41] = target: Arf-GAP with SH3 domain, ANK repeat and PH domain-containing protein 1 (Homo sapiens, UniProt Q9ULH1); assay type: functional;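 also: biochemical fluorescence polarization dose–response screen measuring inhibition of ASAP1; ASAP1 GAP domain stimulating GTP hydrolysis by truncated human ARF1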

Chain of NADPH oxidase 1 (Q9Y5S8 whole entry): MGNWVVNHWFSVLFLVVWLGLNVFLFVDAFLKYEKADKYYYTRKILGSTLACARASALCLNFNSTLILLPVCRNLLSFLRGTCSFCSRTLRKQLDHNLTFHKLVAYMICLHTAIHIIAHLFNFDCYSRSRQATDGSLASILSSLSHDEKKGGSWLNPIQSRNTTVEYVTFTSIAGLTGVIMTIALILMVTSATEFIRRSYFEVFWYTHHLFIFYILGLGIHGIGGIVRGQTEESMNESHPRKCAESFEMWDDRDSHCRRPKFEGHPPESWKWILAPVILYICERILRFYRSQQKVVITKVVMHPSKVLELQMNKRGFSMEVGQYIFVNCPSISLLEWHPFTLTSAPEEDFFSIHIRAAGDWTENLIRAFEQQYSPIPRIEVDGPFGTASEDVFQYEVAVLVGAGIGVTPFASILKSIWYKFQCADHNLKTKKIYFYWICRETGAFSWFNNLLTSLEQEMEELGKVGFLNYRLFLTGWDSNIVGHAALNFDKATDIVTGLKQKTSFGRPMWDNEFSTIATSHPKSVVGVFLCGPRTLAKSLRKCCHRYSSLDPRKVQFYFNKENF

In the case of `CN(C)c1ccc(-c2nc(-c3ccccc3)c(-c3ccccc3)[nH]2)cc1`, the IC50 [1] is reported as 7.95 µM (active).
With `Cc1cccc(C)c1-n1nnnc1SCc1nc(N)nc(N(C)C)n1` the EC50 [2] was 8.3 µM (active).
In the case of `COCCCNC(=O)CC(NS(=O)(=O)c1ccc(C)cc1)c1ccco1` (stereo unspecified), the IC50 [3] is reported as > 100 µM (not active) and the IC50 [4] is reported as > 100 µM (not active).
For `O=C(CSc1ccc2nnc(-c3ccccn3)n2n1)NCc1ccc2c(c1)OCO2`, the EC50 [5] was > 79.4 µM (not active), the EC50 [6] was > 79.4 µM (not active) and the EC50 [7] was > 79.4 µM (not active).
With `COc1ccc(NC(=O)Nc2ccc(C(=O)N3CCOCC3)cc2)cc1` the IC50 [8] was 31.6 µM (active).
In the case of `Oc1c(C(Nc2ccccn2)c2ccccn2)ccc2cccnc12` (stereo unspecified), the EC50 [9] is reported as 7.44 µM (active), the EC50 [10] is reported as 9.9 µM (active) and the IC50 [11] is reported as 3.82 µM (active). The EC50 [12] was > 150 µM (not active), the EC50 [13] was 17.6 µM (active) and the EC50 [14] was 1.22 µM (active). The EC50 [15] was > 20 µM (not active), the EC50 [16] was > 350 µM (not active) and the IC50 [17] was > 67 µM (not active). For the same compound, the EC50 [18] was 5.87 µM (active), the EC50 [19] was 14.8 µM (active) and the IC50 [20] was 8.2 µM (active). For the same compound, the AC50 [21] was 2.79 µM (active), the AC50 [22] was 4.36 µM (active) and the AC50 [23] was 6 µM (active). The AC50 [24] was 2.88 µM (active), the IC50 [25] was 11.4 µM (active) and the AC50 [26] was 21.9 µM (active).
For `COc1ccc(NC(=O)/C(Cl)=C(/Cl)[S+]([O-])Cc2ccccc2Cl)cn1` (stereo unspecified), the CC50 [27] was 1.43 µM (active), the EC50 [28] was > 40 µM (inactive) and the IC50 [29] was 3.25 µM (active). For the same compound, the IC50 [30] was 1.36 µM (active), the IC50 [31] was 4.54 µM (active) and the IC50 [32] was 25.3 µM (inactive).
For `CCCCN(CC)c1nc(N)c2c(N)nc(OCC)cc2c1C#N`, the IC50 [33] was > 67 µM (not active), the CC50 [34] was > 40 µM (active) and the IC50 [35] was 15.2 µM (not active). The EC50 [36] was > 260 µM (inactive) and the AC50 [37] was 92.8 µM (active).
With `Cc1ccc2cc3cc(C(=O)NCc4ccc5c(c4)OCO5)oc3nc2c1` the EC50 [38] was 20.9 µM (active), the IC50 [39] was 46.5 µM (not active) and the IC50 [40] was 16.7 µM (inactive). For the same compound, the IC50 [41] was 12.5 µM (inactive).

— ChEMBL document CHEMBL1201862, “PubChem BioAssay data set” (2004)
